Where no end group is shown, it is not given here. red fluorescent dye = not defined here
Key:
[1] = system: AKT; assay: In vivo AKT inhibition in brain after stereotactic injection (immunofluorescence, western blot); set-up: species or system mouse
Method: As a specific substrate, the phosphorylation level of GSK-3[…] at Ser-9 was also evaluated. […] The decrease was specific to the AKT phosphorylation site on GSK-3[…] at Ser-9, since a change in the phosphorylation level of GSK-3[…] at Tyr-216 or GSK-3[…] at Tyr-279 was not observed. Moreover, the in vivo reduction of the phosphorylation of AKT substrates was more obvious at the injection site, since a significant change in the phosphorylation of AKT substrates in the frontal cortex or cerebellum between the two hemispheres was not observed. […] To test the specificity/selectivity of ZaTa as the inhibitor of AKT1 versus the other major kinases, a series of in vitro kinase assays was performed at IC50 for AKT1 and at ten times higher concentrations. A panel of the following 32 kinases was first tested in vitro using the active form of each kinase and a specific substrate: AKT2, AKT3, PKA, PKC[…], PKC, PI3K[…], PI3K[…], PI3K, SGK, PAK2, PAK3, SAPK2/p38, Abl, CaMKII, CDK1/cyclinB, CDK5/p35, CK1, CK2, CSK, GSK3[…], GSK3[…], JNK1[…]1, MAPK1, p70S6K, PDGFR[…], PDGFR[…], PDK1, PKG1[…], TrkB, JAK2, JAK3, and Syk. […] However, at ten times higher concentration, ZaTa inhibited AKT2 (63%), PI3K[…] (72%), p70S6K (64%), SGK (73%), PAK3 (83%), JAK3 (79%), TrkB (84%), and Abl (42%). To confirm the in vitro inhibitory effect on these kinases in cells, a cell-based assay was used to determine the effect of labeled ZaTa on the phosphorylation levels of well-known intracellular substrates for each kinase (Zipfel, et al. (2004) Curr. Biol. 14:1222-1231; Wang, et al. (2003) Arch. Biochem. Biophys. 410:7-15; King, et al. (1998) Nature 396:180-183; Rangone, et al. (2004) Eur. J. Neurosci. 19:273-279; Middlemas, et al. (1994) J. Biol. Chem. 269:5458-5466; Huang, et al. (1999) J. Biol. Chem. 274:7870-7878). […] Given that most of the above-listed kinases have no known inhibitor, it is contemplated that the ZaTa could be used at micromolar concentrations in in vitro studies to inhibit the activity of the select kinases.
These different localization patterns of ZaTa within the cell were usually accompanied with redistribution of AKT to the site of ZaTa.
N2a cells were cultured in Dulbecco's Modified Eagle's Medium (DMEM) and OPTI-MEM® media (50% of each; GIBCO-BRL, Gaithersberg, Md.) supplemented with 5% fetal bovine serum (FBS; SIGMA, St. Louis, Mo.), penicillin-streptomycin and L-Glutamine (GIBCO-BRL). Cells (˜1×10^6) or frontal cortex of mouse brain (0.05-0.1 gram) were homogenized in ice cold lysate buffer (0.25 M Tris, pH 7.5) containing protease inhibitors (Protease Inhibitor Cocktail tablets; Boehringer Mannheim, Mannheim, Germany) and phosphatase inhibitors (Phosphatase Inhibitor Cocktails I & II; SIGMA) and lysed through three cycles of freezing in liquid nitrogen and thawing in a 37° C. water bath. Protein concentration was measured using a commercially available protein assay (BIO-RAD, […].) protein assay and spectrometry at […]. Equal amounts of total protein were loaded on 4-12% gradient Bis-Tris gels, separated using the NUPAGE® system (INVITROGEN, Carlsbad, Calif.) and transferred onto nitrocellulose membrane. The membrane was probed with primary and secondary antibodies and signals were detected by chemiluminescence followed by autoradiography.
For immunofluorescence analysis of mouse brain, anaesthetized mice were perfused with PBS-buffered formalin, fixed overnight, placed in PBS, and stored at 4° C. VIBRATOME® sections, 50-μm thick, were cut in the coronal plane from the fronto-striatum brain region. […] The sections were blocked overnight using 2% normal goat sera in PBS with 0.3% TRITON™ X-100 and then incubated for 48 hours in blocking solution with 1:500 dilution of anti-phospho-AKT substrate antibody. Sections were washed four times for 15 minutes in PBS, incubated with blocking solution containing goat anti-rabbit ALEXA®-568 secondary antibody (MOLECULAR PROBES, Eugene, Oreg.) for 48 hours, and washed four times for 15 minutes in PBS. […]

[2] = mouse, in vivo
[3] = system: N2a cells; assay: Trypan blue staining, live and dead cell count; type: cell-based
Excerpt: Therefore, in addition to capturing live images, cells were stained with trypan blue at different time intervals following treatment with ZaTa and counted by a light microscope using a hemocytometer.

[4] = molecular target: T1, SGK (Homo sapiens, UniProt O00141); assay: In vitro kinase assay SGK; type: biochemical; conditions: ten times higher concentration than 0.1 μM
T1 construct: endogenous in cells
T1 sequence (O00141 1-431): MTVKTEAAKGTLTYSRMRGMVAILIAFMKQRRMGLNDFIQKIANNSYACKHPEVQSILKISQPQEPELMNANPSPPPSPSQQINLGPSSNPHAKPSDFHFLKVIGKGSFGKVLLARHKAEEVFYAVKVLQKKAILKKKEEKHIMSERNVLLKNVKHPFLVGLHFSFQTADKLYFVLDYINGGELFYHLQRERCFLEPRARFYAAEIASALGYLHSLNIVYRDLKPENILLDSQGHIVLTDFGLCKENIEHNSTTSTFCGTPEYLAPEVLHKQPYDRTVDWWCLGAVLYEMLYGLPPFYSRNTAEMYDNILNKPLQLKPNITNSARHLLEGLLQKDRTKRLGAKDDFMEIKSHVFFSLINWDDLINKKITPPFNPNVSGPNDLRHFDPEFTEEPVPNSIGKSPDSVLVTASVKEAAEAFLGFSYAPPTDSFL
Method: As a specific substrate, the phosphorylation level of GSK-3[…] at Ser-9 was also evaluated. […] The decrease was specific to the AKT phosphorylation site on GSK-3[…] at Ser-9, since a change in the phosphorylation level of GSK-3[…] at Tyr-216 or GSK-3[…] at Tyr-279 was not observed. Moreover, the in vivo reduction of the phosphorylation of AKT substrates was more obvious at the injection site, since a significant change in the phosphorylation of AKT substrates in the frontal cortex or cerebellum between the two hemispheres was not observed. […] To test the specificity/selectivity of ZaTa as the inhibitor of AKT1 versus the other major kinases, a series of in vitro kinase assays was performed at IC50 for AKT1 and at ten times higher concentrations. A panel of the following 32 kinases was first tested in vitro using the active form of each kinase and a specific substrate: AKT2, AKT3, PKA, PKC[…], PKC, PI3K[…], PI3K[…], PI3K, SGK, PAK2, PAK3, SAPK2/p38, Abl, CaMKII, CDK1/cyclinB, CDK5/p35, CK1, CK2, CSK, GSK3[…], GSK3[…], JNK1[…]1, MAPK1, p70S6K, PDGFR[…], PDGFR[…], PDK1, PKG1[…], TrkB, JAK2, JAK3, and Syk. […] However, at ten times higher concentration, ZaTa inhibited AKT2 (63%), PI3K[…] (72%), p70S6K (64%), SGK (73%), PAK3 (83%), JAK3 (79%), TrkB (84%), and Abl (42%). […]

[5] = system: non-proliferating neurons in primary cortical culture; assay: TUNEL assay in primary cortical neuron culture; type: cell-based; conditions: 1 or 5 µM, 72-hour treatment, compared to control peptide
Method: It is now well-established that AKT protects against apoptosis through phosphorylation and inhibition of pro-apoptotic mediators such as BAD, FOXO family members and IKK-[…] (Datta, et al. (1999) Genes Dev. 13:2905-2927). […] Primary neurons were treated with DMSO, 1 µM or 5 µM of either ZaTa or the control peptide for a duration of 1, 3, 16, 24, 48 or 72 hours. The number of apoptotic cells was counted following the TUNEL assay. […] The increase in the number of apoptotic neurons following treatment with ZaTa was consistent with its potent intra-neuronal inhibition of AKT.

| Substance | change in phosphorylation of AKT substrates in frontal cortex or cerebellum ([1]; away from striatal injection site, between hemispheres) | phosphorylation level of AKT substrates in vivo, western blot ([1]; one hour after stereotactic injection) | phosphorylation level of AKT substrates in striatum, immunofluorescence ([1]; stereotactic injection, versus DMSO-injected hemisphere) | change in phosphorylation level of GSK-3[…] at Tyr-216 or Tyr-279 ([1]; striatum) | phosphorylation level of GSK-3[…] at Ser-9 ([1]; striatum, versus DMSO-injected hemisphere) | distribution and absorption throughout brain tissue [2] | increase in the number of dead cells ([3]; counted at time points from 12 to 72 hours) | number of live cells, trypan blue ([3]; different time intervals) | inhibition of SGK [4] | number of TUNEL-positive cells [5] | phosphorylation level of AKT substrates in ZaTa-positive cells ([1]; stereotactic injection into frontal cortex) |
| --- | --- | --- | --- | --- | --- | --- | --- | --- | --- | --- | --- |
| AKRVKGRTWTLCGTPEY [ZaTa] | not observed | significant decrease | decrease in the phosphorylation level of AKT substrates | not observed | specific reduction | efficient distribution and absorption | not seen | dose-dependent decrease | 73% | marked dose-dependent increase |  |
| labeled ZaTa: ZaTa peptide labeled with a red fluorescent dye at its N-terminus ({red fluorescent dye}-AKRVKGRTWTLCGTPEY; reading uncertain) |  |  |  |  |  |  |  |  |  |  | specific reduction in phosphorylation level of AKT substrates |
